How the values were obtained:
IL8R-A = details: Holmes et al., cited from earlier work
expressed IL-8 receptor = system: expressed IL-8 receptor
Description: (§1) Oppenheim et al., supra; Korchak et al., J. Biol Chem., 259: 4076-4082 (1984). […] Oppenheim et al., supra.

[1] = system: IL-8 receptor (clone pRK5B.il8r1.1) on transfected COS cells; assay: 125I-IL-8 binding competition on transfected COS cells; design: species or system human; details: COS cells transfected with clone pRK5B.il8r1.1
Protocol: Samanta et al., supra, Besemer et al., supra, Grob et al., supra.
Binding competition was performed with electroporated COS-7 cells after 1 day of expression in 6-well dishes (about 175,000 cells/dish). […] Wells were then washed, the cells harvested with trypsin, and counted. […] Neutrophil binding was performed as described (Pacholczyk et al., supra) but for 2 hr at 4° C.

[2] = system: human IL-8 receptor (clone pRK5B.il8r1.1); assay: Flow cytometry intracellular Ca++ response of 293 cells transfected with IL-8 receptor; format: cell-based
Protocol: (§2) After two days, the cells were loaded with 2 μM indo-1 acetoxymethyl ester in RPMI medium (Sigma) for 30 min at 37° C. Intracellular Ca^++ was measured with a Coulter 753 flow cytometer using the ratio of 405 and 525 nm fluorescence. Grynkiewicz et al., J. Biol. Chem., 260: 3440-3450 (1985).
(§3) No response is found to fMLP. […] Oppenheim et al., supra.

human fMLP receptor = assay: Flow cytometry intracellular Ca++ response of 293 cells transfected with fMLP receptor; format: cell-based; details: 293 cells transfected with human fMLP receptor
Protocol: as §2, §1

IL8R-B = details: background, Murphy and Tiffany; read-out: affinity of IL8R-B for ligand; cited from earlier work
[3] = system: Murphy and Tiffany receptor; assay: Ligand affinity of the Murphy and Tiffany receptor (studies herein); format: binding, human
Description: Murphy and Tiffany, supra, describe a receptor having a high degree of homology to the receptor of FIG. 2. […] This could be readily accomplished by routine screening methods.

[4] = system: receptor of FIG. 5 (8rr.9); assay: Response of recombinant cells bearing the FIG. 5 receptor to PF4 superfamily ligands; format: cell-based, human; details: preliminary experiments
[5] = system: receptor of FIG. 4 (8rr.20.15); assay: Response of recombinant cells bearing the FIG. 4 receptor to PF4 superfamily ligands; format: cell-based, human; details: preliminary experiments
[6] = system: expressed human fMLP receptor; assay: 125I-IL-8 binding to the expressed human fMLP receptor
Description: as §3

[7] = system: receptor of FIG. 2 (IL-8 receptor); assay: MGSA binding to the receptor of FIG. 2; design: species or system human
Description: Murphy and Tiffany, supra, describe a receptor having a high degree of homology to the receptor of FIG. 2. […] This could be readily accomplished by routine screening methods. […] On the other hand, antibodies that can discriminate between the FIG. 2 and Murphy and Tiffany receptors and bind only to one or the other are useful in diagnosis. The receptor of FIG. 2 binds MGSA poorly, in contrast to the Murphy and Tiffany receptor.

human neutrophils = assay: Inhibition of 125I-IL-8 binding to human neutrophils; details: 475 pM of MGSA, no antibody
Description: Cells were washed twice in the HBSS medium and resuspended to be 1×10^6 cells/ml.

Molecule	recognition of ligand by IL8R-A (IL8R-A)	response of recombinant cells bearing the receptor [4]	response of recombinant cells bearing the receptor [5]	further results
CCCCC/C=C\C[C@@H](O)/C=C/C=C/C=C\[C@@H](O)CCCC(=O)O [LTB4, reference compound]	does not recognize	–	–	–
CSCC[C@H](NC=O)C(=O)N[C@@H](CC(C)C)C(=O)N[C@@H](Cc1ccccc1)C(=O)O [fMLP, f-Met-Leu-Phe, reference compound]	does not recognize	–	–	binding of 3H-fMLP to the expressed IL-8 receptor (expressed IL-8 receptor): failed to detect any binding; competition of 125I-IL-8 binding [1]: no competition; intracellular Ca++ response [2]: No response; intracellular Ca++ response (human fMLP receptor): respond
IL-8: Purified human 72 amino acid IL-8 made in E. coli	–	do not respond	do not respond	Kd (IL8R-B): 2 nM; IL-8 affinity compared with the receptor of FIG. 2 [3]: as high or higher; Kd (IL8R-A; background, read-out: affinity of IL8R-A for ligand): 2 nM; intracellular Ca++ response [2]: clear transient increase; binding of 125I-IL-8 to the expressed human fMLP receptor [6]: failed to detect any binding; intracellular Ca++ response (human fMLP receptor): not
MCP1: PF4 superfamily ligand tested on cells bearing the FIG. 4 and 5 receptors	–	do not respond	do not respond	–
MCAF: macrophage chemotactic and activating factor, C-C peptide	does not recognize	–	–	–
TNF-α	does not recognize	–	–	–
MGSA: NAP-3 (melanoma growth-stimulating activity [MGSA]/gro), C-X-C member of the PF4 superfamily	does recognize	do not respond	do not respond	Kd (IL8R-B): 2 nM; Kd ([3]; read-out: affinity for MGSA): 1 to 10 nM; binding of MGSA [7]: poorly; inhibition of IL-8 binding to human neutrophils by MGSA (human neutrophils): approximately 50%
NAP-2: neutrophil activating protein-2, C-X-C family member (protein, UniProt P02775 59-128, looked up, Neutrophil-activating peptide 2) Neutrophil-activating peptide …: AELRCMCIKTTSGIHPKNIQSLEVIGKGTHCNQVEVIATLKDGRKICLDPDAPRIKKIVQKKLAGDESAD	does recognize	–	–	–
C5α: neutrophil chemoattractant C5a (protein, UniProt P01031 678-751, looked up, C5a anaphylatoxin, neutrophil chemoattractant C5a) C5a anaphylatoxin: TLQKKIEEIAAKYKHSVVKKCCYDGACVNNDETCEQRAARISLGPRCIKAFTECCVVASQLRANISHKDMQLGR	does not recognize	–	–	–
Rantes: C-C peptide of the platelet factor 4 superfamily (protein) SPYSSDTTPCCFAYIARPLPRAHIKEYFYTSGKCSNPAVVFVTRKNRQVCANPEKKWVREYINSLEMS	–	do not respond	do not respond	–

Reference: patent US5919896A, “PF4A receptor” (Genentech, Inc., priority 1997, dated 1999)
